Data reported in ChEMBL document CHEMBL1136386, “Solid-phase synthesis of endothelin receptor antagonists” (Bioorg Med Chem Lett, 2003).

Columns and labels:
[1] = target: T1, Endothelin-1 receptor (Homo sapiens, UniProt P25101); assay: Antagonist activity against human ETA receptor using CHO cells; assay type: functional, cell-based
T1 sequence (P25101 whole entry): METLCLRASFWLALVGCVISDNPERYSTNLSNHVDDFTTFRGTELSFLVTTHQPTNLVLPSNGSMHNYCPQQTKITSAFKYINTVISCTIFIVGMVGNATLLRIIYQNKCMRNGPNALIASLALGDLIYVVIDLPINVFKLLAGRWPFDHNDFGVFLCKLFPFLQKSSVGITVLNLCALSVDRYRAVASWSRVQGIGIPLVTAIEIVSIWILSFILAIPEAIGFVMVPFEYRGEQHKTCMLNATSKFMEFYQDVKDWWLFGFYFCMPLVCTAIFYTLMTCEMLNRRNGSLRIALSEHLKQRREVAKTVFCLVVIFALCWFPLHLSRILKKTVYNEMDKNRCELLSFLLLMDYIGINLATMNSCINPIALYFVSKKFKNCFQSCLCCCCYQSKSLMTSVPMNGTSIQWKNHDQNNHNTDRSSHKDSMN

[2] = target: T2, Endothelin receptor type B (Homo sapiens, UniProt P24530); assay: Antagonist activity against human Endothelin B receptor expressed in CHO cells; assay type: functional, cell-based
T2 sequence (P24530 whole entry): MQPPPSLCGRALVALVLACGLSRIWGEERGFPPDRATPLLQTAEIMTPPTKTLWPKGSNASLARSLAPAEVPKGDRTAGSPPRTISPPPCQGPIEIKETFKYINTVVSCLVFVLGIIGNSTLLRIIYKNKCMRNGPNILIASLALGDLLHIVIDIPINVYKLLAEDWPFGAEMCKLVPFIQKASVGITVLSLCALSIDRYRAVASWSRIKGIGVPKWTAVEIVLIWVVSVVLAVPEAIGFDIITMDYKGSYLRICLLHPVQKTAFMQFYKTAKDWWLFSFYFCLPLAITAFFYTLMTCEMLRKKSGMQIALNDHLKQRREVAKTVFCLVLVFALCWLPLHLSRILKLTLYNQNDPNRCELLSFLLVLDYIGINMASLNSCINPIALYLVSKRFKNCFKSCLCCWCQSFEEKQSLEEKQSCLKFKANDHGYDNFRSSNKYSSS

- Ki [1]: 2 nM
- Ki [2]: 344 nM
Structure (SMILES): CCOc1ccc(-c2cc(C)nc(OC(C(=O)O)C(C)(c3ccccc3)c3ccccc3)n2)cc1 (configuration not stated)
